In patent publication EP1082099B1, “SURFACTANT FOR USE IN EXTERNAL PREPARATIONS FOR SKIN AND EXTERNAL PREPARATION FOR SKIN CONTAINING THE SAME” (Showa Denko K K, priority 1998, dated 1999):

Experiments:
[1] = Skin penetration test of methylparaben through hairless mouse skin (two-chamber); format: in vitro ADME; details: Example 2; donor side phosphate buffer pH 7 with stated composition; after 5 hours
Description: One (donor side) of two chambers separated by a hairless mouse skin was filled with a phosphate buffer (pH 7) having dissolved therein a substance having the composition described in Table 3 and the other (receiver side) was filled with a phosphate buffer solution (pH 7). After 5 hours, the concentration of methylparaben on the receiver side was measured. […] As will be apparent from the results, surfactin suppressed the skin penetration of skin-irritating substances.
(§1) One (donor side) of two chambers separated by a hairless mouse skin was filled with a cosmetic having the composition described in Table 6 and the other (receiver side) was filled with a phosphate buffer solution (pH 7). After 5 hours, the concentration of methylparaben on the receiver side was measured.
as §1, with “14” for “6”

[2] = test system: three-dimensional skin model; test: Skin irritation test: MTT cytotoxicity on three-dimensional cultured skin model; format: cell-based; details: test substance in PBS pH 7, 1 hour exposure, 16 hours incubation, read from graph
Description: Using a three-dimensional skin model (trade name: Three-dimensional cultured skin model, manufactured by Gunze), skin irritation tests were performed. […] The test substances were adjusted with PBS (Phosphate Buffer Saline, pH 7) so that they were in various concentrations. To the thus-adjusted test substances was exposed the skin model for 1 hour. Thereafter, the test substances were washed and incubated for 16 hours in a medium attached to the above-described three-dimensional skin model. After the incubation, a solution of MTT (3-(4,5-dimethylthiazol-2-yl)-2,5-diphenyltetrazolium bromide) was added and pigments were extracted with isopropanol rendered acidic with hydrochloric acid, followed by measurement of absorbance at a wavelength of 570 nm. […] This value was called B. The MTT solution was added to PBS and extraction was performed similarly. Absorbance of the extract measured at a wavelength of 570 nm was named C. From these values was calculated cytotoxicity. Calculation was made according to the following equation. Cytotoxicity (%) = (1-(A-c)/(B-C)) x 100 [formula]
Plotting the concentration of a test substance on the axis of abscissa and cytotoxicity on the axis of ordinate, a graph was obtained, from which the concentration of a test compound at 50% cytotoxicity was read.

| SMILES | Concentration of methylparaben of receiver [1] [ppm] | Concentration of surfactant at 50% cytotoxicity [2] [%] |
| --- | --- | --- |
| COC(=O)c1ccc(O)cc1 [0.1% Methylparaben, Methylparaben] | 5.7 | – |
| CCCCCCCCCCCCOS(=O)(=O)[O-].[Na+] [SDS, sodium dodecylsulfate, reference compound] | – | 0.2 |
